pEC50: −log10 of the molar value. Several values for one entry are separate records, joined by “and”; a condition that tells them apart may be missing. Equal values may be shown once.
Assays:
[1] = test system: hippocampal neurons expressing GFP; experiment: Current-clamp of control cultured hippocampal neurons expressing GFP; type: cell-based, rat; details: for DmV MEAN: IRES-EGFP control, MEAN of cells
[2] = target: α7–GlyR mutant chimeric channels (Homo sapiens, UniProt P36544, P216V); experiment: Membrane potential assay screen, mutant α7–GlyR chimeric channels; type: cell-based; details: EC50 at α7 GlyR P216V, sheet 1d
[3] = target: α7–GlyR mutant chimeric channels (Homo sapiens, UniProt P36544, Q79G); experiment: as above; type: cell-based; details: EC50 at α7-GlyR Q79G, sheet 1d
[4] = target: α7–GlyR mutant chimeric channels (Homo sapiens, UniProt P36544, L131Q); experiment: as above; type: cell-based; details: EC50 at α7 GlyR L131Q, sheet 1d
[5] = target: α7–GlyR mutant chimeric channels (Homo sapiens, UniProt P36544, P216I); experiment: as above; type: cell-based; details: EC50 at α7 GlyR P216I, sheet 1d
[6] = target: α7–GlyR mutant chimeric channels (Homo sapiens, UniProt P36544, P216M); experiment: as above; type: cell-based; details: EC50 at α7 GlyR P216M, sheet 1d
[7] = target: α7–GlyR mutant chimeric channels (Homo sapiens, UniProt P36544, Q79A); experiment: as above; type: cell-based; details: EC50 at α7-GlyR Q79A, sheet 1d
[8] = target: α7–GlyR mutant chimeric channels (Homo sapiens, UniProt P36544, L141A); experiment: as above; type: cell-based; details: EC50 at α7 GlyR L141A, sheet 1d
[9] = target: α7–GlyR mutant chimeric channels (Homo sapiens, UniProt P36544, L131N); experiment: as above; type: cell-based; details: EC50 at α7 GlyR L131N, sheet 1d
[10] = target: α7–GlyR mutant chimeric channels (Homo sapiens, UniProt P36544, W77F); experiment: as above; type: cell-based; details: EC50 at a7 GlyR W77F, sheet 1d
[11] = target: α7–GlyR mutant chimeric channels (Homo sapiens, UniProt P36544, L141F); experiment: as above; type: cell-based; details: EC50 at α7 GlyR L141F, sheet 1d
[12] = target: α7–GlyR mutant chimeric channels (Homo sapiens, UniProt P36544, L131G); experiment: as above; type: cell-based; details: EC50 at α7GlyR L131G, sheet 1d
[13] = target: α7–GlyR mutant chimeric channels (Homo sapiens, UniProt P36544, L131F); experiment: as above; type: cell-based; details: EC50 at α7GlyR L131F, sheet 1d
[14] = target: α7–GlyR mutant chimeric channels (Homo sapiens, UniProt P36544, L141P); experiment: as above; type: cell-based; details: EC50 at α7 GlyR L141P, sheet 1d
[15] = target: α7–GlyR mutant chimeric channels (Homo sapiens, UniProt P36544, Q139G); experiment: as above; type: cell-based; details: EC50 at α7 GlyR Q139G, sheet 1d
[16] = target: α7–GlyR mutant chimeric channels (Homo sapiens, UniProt P36544, L141G); experiment: as above; type: cell-based; details: EC50 at α7 GlyR L141G, sheet 1d
[17] = target: α7–GlyR mutant chimeric channels (Homo sapiens, UniProt P36544, L131M); experiment: as above; type: cell-based; details: EC50 at α7 GlyR L131M, sheet 1d
[18] = target: α7–GlyR mutant chimeric channels (Homo sapiens, UniProt P36544, L131K); experiment: as above; type: cell-based; details: EC50 at α7 GlyR L131K, sheet 1d
[19] = target: α7–GlyR mutant chimeric channels (Homo sapiens, UniProt P36544, Q79S); experiment: as above; type: cell-based; details: EC50 at α7-GlyR Q79S, sheet 1d
[20] = target: α7–GlyR mutant chimeric channels (Homo sapiens, UniProt P36544, L131A); experiment: as above; type: cell-based; details: EC50 at α7GlyR L131A, sheet 1d
[21] = target: α7–GlyR mutant chimeric channels (Homo sapiens, UniProt P36544, P216A); experiment: as above; type: cell-based; details: EC50 at α7 GlyR P216A, sheet 1d
DAT = details: endogenous target; cited from earlier work

Chain of α7–GlyR mutant chimeric channels (Homo sapiens, UniProt P36544, L141G) (P36544 23-230 L141G): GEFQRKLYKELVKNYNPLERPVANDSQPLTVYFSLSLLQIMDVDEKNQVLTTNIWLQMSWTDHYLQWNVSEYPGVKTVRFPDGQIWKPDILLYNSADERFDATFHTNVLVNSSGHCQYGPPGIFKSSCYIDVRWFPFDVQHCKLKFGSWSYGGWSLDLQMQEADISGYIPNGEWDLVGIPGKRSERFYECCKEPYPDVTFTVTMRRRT
Chain of α7–GlyR mutant chimeric channels (Homo sapiens, UniProt P36544, L141G) (P23415 247-457 partner): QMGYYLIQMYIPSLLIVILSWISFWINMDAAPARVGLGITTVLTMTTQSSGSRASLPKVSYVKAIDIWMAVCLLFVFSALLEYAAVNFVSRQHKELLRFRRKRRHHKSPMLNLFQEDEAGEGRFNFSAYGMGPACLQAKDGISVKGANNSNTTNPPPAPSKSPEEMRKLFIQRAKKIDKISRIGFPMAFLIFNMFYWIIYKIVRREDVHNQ
Chain of α7–GlyR mutant chimeric channels (Homo sapiens, UniProt P36544, L141A) (P36544 23-230 L141A): as the sequence (P36544 23-230 L141G) above, with G119A counted along it
Chain of α7–GlyR mutant chimeric channels (Homo sapiens, UniProt P36544, L141A) (P23415 247-457 partner): as the sequence (P23415 247-457 partner) above
Chain of α7–GlyR mutant chimeric channels (Homo sapiens, UniProt P36544, L131N) (P36544 23-230 L131N): as the sequence (P36544 23-230 L141G) above, with L109N, G119L counted along it
Chain of α7–GlyR mutant chimeric channels (Homo sapiens, UniProt P36544, L131N) (P23415 247-457 partner): as the sequence (P23415 247-457 partner) above
Chain of α7–GlyR mutant chimeric channels (Homo sapiens, UniProt P36544, L131Q) (P36544 23-230 L131Q): as the sequence (P36544 23-230 L141G) above, with L109Q, G119L counted along it
Chain of α7–GlyR mutant chimeric channels (Homo sapiens, UniProt P36544, L131Q) (P23415 247-457 partner): as the sequence (P23415 247-457 partner) above
Chain of α7–GlyR mutant chimeric channels (Homo sapiens, UniProt P36544, L131A) (P36544 23-228 L131A): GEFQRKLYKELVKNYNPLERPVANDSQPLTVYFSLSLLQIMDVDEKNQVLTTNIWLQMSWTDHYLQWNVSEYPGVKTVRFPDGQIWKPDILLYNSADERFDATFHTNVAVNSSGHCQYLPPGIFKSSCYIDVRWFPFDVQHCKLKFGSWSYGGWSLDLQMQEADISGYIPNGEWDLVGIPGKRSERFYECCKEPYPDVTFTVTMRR
Chain of α7–GlyR mutant chimeric channels (Homo sapiens, UniProt P36544, L131A) (P23415 248-457 partner): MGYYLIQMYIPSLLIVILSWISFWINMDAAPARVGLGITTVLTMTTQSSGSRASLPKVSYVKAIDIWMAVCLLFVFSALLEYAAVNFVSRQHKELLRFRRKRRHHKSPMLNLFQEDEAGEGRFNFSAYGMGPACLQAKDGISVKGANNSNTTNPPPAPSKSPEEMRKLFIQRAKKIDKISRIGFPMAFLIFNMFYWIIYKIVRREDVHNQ
Chain of α7–GlyR mutant chimeric channels (Homo sapiens, UniProt P36544, L131F) (P36544 23-228 L131F): as the sequence (P36544 23-228 L131A) above, with A109F counted along it
Chain of α7–GlyR mutant chimeric channels (Homo sapiens, UniProt P36544, L131F) (P23415 248-457 partner): as the sequence (P23415 248-457 partner) above
Chain of α7–GlyR mutant chimeric channels (Homo sapiens, UniProt P36544, L131M) (P36544 23-229 L131M): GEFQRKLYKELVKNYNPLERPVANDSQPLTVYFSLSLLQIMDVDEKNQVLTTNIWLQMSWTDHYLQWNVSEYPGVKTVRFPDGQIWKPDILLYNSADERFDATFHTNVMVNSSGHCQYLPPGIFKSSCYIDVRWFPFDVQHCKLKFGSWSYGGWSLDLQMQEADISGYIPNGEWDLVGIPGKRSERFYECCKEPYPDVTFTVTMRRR
Chain of α7–GlyR mutant chimeric channels (Homo sapiens, UniProt P36544, L131M) (P23415 247-457 partner): as the sequence (P23415 247-457 partner) above
Chain of α7–GlyR mutant chimeric channels (Homo sapiens, UniProt P36544, P216I) (P36544 23-230 P216I): as the sequence (P36544 23-230 L141G) above, with G119L, P194I counted along it
Chain of α7–GlyR mutant chimeric channels (Homo sapiens, UniProt P36544, P216I) (P23415 248-457 partner): as the sequence (P23415 248-457 partner) above
Chain of α7–GlyR mutant chimeric channels (Homo sapiens, UniProt P36544, P216V) (P36544 23-230 P216V): as the sequence (P36544 23-230 L141G) above, with G119L, P194V counted along it
Chain of α7–GlyR mutant chimeric channels (Homo sapiens, UniProt P36544, P216V) (P23415 248-457 partner): as the sequence (P23415 248-457 partner) above
Chain of α7–GlyR mutant chimeric channels (Homo sapiens, UniProt P36544, L131K) (P36544 23-229 L131K): as the sequence (P36544 23-229 L131M) above, with M109K counted along it
Chain of α7–GlyR mutant chimeric channels (Homo sapiens, UniProt P36544, L131K) (P23415 248-457 partner): as the sequence (P23415 248-457 partner) above
Chain of α7–GlyR mutant chimeric channels (Homo sapiens, UniProt P36544, P216A) (P36544 23-230 P216A): as the sequence (P36544 23-230 L141G) above, with G119L, P194A counted along it
Chain of α7–GlyR mutant chimeric channels (Homo sapiens, UniProt P36544, P216A) (P23415 247-457 partner): as the sequence (P23415 247-457 partner) above

With `COC(=O)[C@H]1[C@@H](OC(=O)c2ccccc2)C[C@@H]2CC[C@H]1N2C` [cocaine] the “depolarization of control neurons” value ([1]; GFP control neurons) was “did not affect control neurons”, the “DmV MEAN” value ([1]; cocaine 0.1 uM) was -0.03 mV and the “DmV MEAN” value ([1]; cocaine 0.3 uM) was -0.2411 mV. For the same compound, the “DmV MEAN” value ([1]; cocaine 1 uM) was 0.04889 mV, the “DmV MEAN” value ([1]; cocaine 3 uM) was 0.31 mV and the “DmV MEAN” value ([1]; cocaine 10 uM) was -0.01556 mV. The “DmV MEAN” value ([1]; cocaine 30 uM) was -0.4375 mV, the pEC50 ([2]; Avg) was less than 4.52 and the pEC50 ([2]; single determinations) was less than 4.52. The pEC50 ([3]; Avg) was less than 4.52, the pEC50 ([3]; single determinations) was less than 4.52 and the pEC50 ([4]; Avg) was less than 4.52. The pEC50 ([4]; single determinations) was less than 4.52, the pEC50 ([5]; Avg) was less than 4.52 and the pEC50 ([5]; single determinations) was less than 4.52. It also gave a pEC50 ([6]; Avg) of less than 4.52, a pEC50 ([6]; single determinations) of less than 4.52 and a pEC50 ([7]; Avg) of less than 4.52. For the same compound, the pEC50 ([7]; single determinations) was less than 4.52, the pEC50 ([8]; Avg) was 5.30 and the pEC50 ([8]; single determinations) was 5.17 and 5.48. The pEC50 ([9]; Avg) was 4.68, the pEC50 ([9]; single determinations) was 4.92 and < 4.52 and the pEC50 ([10]; Avg) was 5.47. The pEC50 ([10]; single determinations) was 5.47, the pEC50 ([11]; Avg) was less than 4.52 and the pEC50 ([11]; single determinations) was less than 4.52. The pEC50 ([12]; Avg) was less than 4.52, the pEC50 ([12]; single determinations) was less than 4.52 and the pEC50 ([13]; Avg) was less than 4.52. It also gave a pEC50 ([13]; single determinations) of less than 4.52, a pEC50 ([14]; Avg) of less than 4.52 and a pEC50 ([14]; single determinations) of less than 4.52. It also gave a pEC50 ([15]; Avg) of less than 4.52, a pEC50 ([15]; single determinations) of less than 4.52 and a pEC50 ([16]; Avg) of 5.08. For the same compound, the pEC50 ([16]; single determinations) was 5.25 and 4.96, the pEC50 ([17]; Avg) was less than 4.52 and the pEC50 ([17]; single determinations) was less than 4.52. For the same compound, the pEC50 ([18]; Avg) was less than 4.52, the pEC50 ([18]; single determinations) was less than 4.52 and the pEC50 ([19]; Avg) was less than 4.52. It also gave a pEC50 ([19]; single determinations) of less than 4.52, a pEC50 ([20]; Avg) of less than 4.52 and a pEC50 ([20]; single determinations) of less than 4.52. For the same compound, the pEC50 ([21]; Avg) was less than 4.52, the pEC50 ([21]; single determinations) was less than 4.52 and the “range of cocaine affinities for DAT” value (DAT) was 0.23 to 2.0 µM.
